Marks after values point to notes of the source that are not given here.
What was measured:
[1] = Serum biochemical detection at 8 weeks after radiotherapy; details: SD rats, 8 weeks after submandibular gland irradiation
[2] = test system: human submandibular gland epithelial cell line (HSG); assay: RTCA cell proliferation after single X-ray irradiation with drugs; type: cell-based; details: Table 5 and FIG. 7
Excerpt: 2) The proliferation plate were taken out, and the medium was refreshed. […] The cells were subjected to single X-ray (RAD SOURCE 2000) irradiation at a dose of 1.22 gy/min and a total dose of 2 gy.
3) After irradiation, detection was continuously carried out.

[3] = test system: human submandibular gland epithelial cell line (HSG); assay: RTCA cell proliferation after addition of drugs (no irradiation); details: microcapsules 0.25 mM, nitrate 0.5 mM
[4] = test system: rat salivary gland; assay: Salivary flow rate of rats before and after radiotherapy; details: SD rats
[5] = Nitrate content in saliva of rats after radiotherapy; type: in vivo; details: SD rats, 4 and 8 weeks after radiotherapy
[6] = test system: submandibular gland acinar cells; assay: Vacuole area in submandibular gland acinar cells (HE staining); type: in vivo; details: SD rats, high dose 40.5 mM, 8 weeks after radiotherapy
Excerpt: At 8 weeks after radiotherapy, the micrographs (×40) of the HE stained submandibular gland tissues of the rats in each experimental group were shown in FIG. 9A on the right of the panel of FIG. 9. See FIG. 9B on the left of the panel of FIG. 9.

[7] = Nitrate content in the blood of mice after single gastric gavage; type: in vivo; details: ICR mice, 2 mmol/kg sodium nitrate single gastric gavage
Protocol: A total of 40 ICR mice (male, 20±4 g) were randomly divided into 4 groups of 10 mice each. […] Blood was collected from vena caudalis at 0 h, and 2, 4, 6, 12, and 24 h after gastric gavage, respectively.

[8] = test system: AQP5; assay: AQP5 expression level in submandibular gland acinar cells (immunofluorescence); type: in vivo; details: SD rats, 8 weeks after radiotherapy
Excerpt: The immunofluorescence staining photographs (×20 under microscope) of the paraffin sections of the submandibular gland of the rats in each experimental group at 8 weeks after radiotherapy, and the quantitation results of the expression levels of AQP5 in the submandibular gland acinar cells in each group were shown in FIG. 10 and Table 8.

[9] = HE staining of sections of major organs (heart, liver, spleen, lung, kidney); details: SD rats
[10] = high dose 40.5 mM in drinking water
[11] = low dose 20.25 mM in drinking water

O=[N+]([O-])[O-].[Na+] [Sodium nitrate, sodium nitrate]
ALP [1, 10]: 112.00 ± 19.69 U/L
ALT [1, 10]: 49.20 ± 10.30 U/L
AST [1, 10]: 116.20 ± 9.44 U/L
Alb [1, 10]: 8.66 ± 0.87 g/L
Ca [1, 10]: 2.41 ± 0.14 mmol/L
Cr [1, 10]: 46.7 ± 14.59 µmol/L
D-Bil [1, 10]: 1.8 ± 1.21 µmol/L
GGT [1, 10]: 5.00 ± 0.71 U/L
Glb [1, 10]: 45.42 ± 3.88 g/L
HDL-C [1, 10]: 2.09 ± 0.43 mmol/L
I-Bil [1, 10]: 1.73 ± 1.57 µmol/L
K [1, 10]: 5.10 ± 0.45 mmol/L
LDH [1, 10]: 747.40 ± 165.67 U/L
LDL-C [1, 10]: 0.24 ± 0.06 mmol/L
Na [1, 10]: 141.66 ± 1.62 mmol/L
P [1, 10]: 2.77 ± 1.01 mmol/L
T-Bil [1, 10]: 3.52 ± 2.00 µmol/L
TC [1, 10]: 1.87 ± 0.38 mmol/L
TCO2 [1, 10]: 30.12 ± 3.07 mmol/L
TG [1, 10]: 0.31 ± 0.38 mmol/L
TP [1, 10]: 54.08 ± 4.11 g/L
Urea [1, 10]: 5.78 ± 1.21 mmol/L
ALP [1, 11]: 95.00 ± 52.85 U/L
ALT [1, 11]: 46.60 ± 16.80 U/L
AST [1, 11]: 123.80 ± 38.49 U/L
Alb [1, 11]: 8.20 ± 1.32 g/L
Ca [1, 11]: 2.39 ± 0.09 mmol/L
Cr [1, 11]: 47.82 ± 12.95 µmol/L
D-Bil [1, 11]: 1.43 ± 0.40 µmol/L
GGT [1, 11]: 5.60 ± 0.89 U/L
Glb [1, 11]: 44.68 ± 1.80 g/L
HDL-C [1, 11]: 2.13 ± 0.71 mmol/L
I-Bil [1, 11]: 1.43 ± 1.07 µmol/L
K [1, 11]: 5.31 ± 0.48 mmol/L
LDH [1, 11]: 1212.44 ± 728.19 U/L
LDL-C [1, 11]: 0.27 ± 0.06 mmol/L
Na [1, 11]: 140.72 ± 1.47 mmol/L
P [1, 11]: 2.37 ± 0.22 mmol/L
T-Bil [1, 11]: 2.52 ± 1.37 µmol/L
TC [1, 11]: 2.05 ± 0.71 mmol/L
TCO2 [1, 11]: 30.26 ± 2.68 mmol/L
TG [1, 11]: 0.57 ± 0.42 mmol/L
TP [1, 11]: 52.88 ± 2.40 g/L
effect on proliferation of submandibular gland epithelial cells after single irradiation [2]: promote the proliferation
effect on proliferation of submandibular gland epithelial cells under normal conditions [3]: promote the proliferation
salivary flow rate ([4]; high dose 40.5 mM in drinking water, 1 W after radiotherapy): 0.48 ± 0.25 ml/20 min
salivary flow rate ([4]; high dose 40.5 mM in drinking water, 2 W after radiotherapy): 1.12 ± 0.20^a ml/20 min
salivary flow rate ([4]; high dose 40.5 mM in drinking water, 4 W after radiotherapy): 0.91 ± 0.17^a ml/20 min
salivary flow rate ([4]; high dose 40.5 mM in drinking water, 6 W after radiotherapy): 0.80 ± 0.09^a ml/20 min
salivary flow rate ([4]; high dose 40.5 mM in drinking water, 8 W after radiotherapy): 0.81 ± 0.13 ml/20 min
salivary flow rate ([4]; high dose 40.5 mM in drinking water, first column 1 W (1 week before radiotherapy)): 1.37 ± 0.24 ml/20 min
salivary flow rate ([4]; low dose 20.25 mM in drinking water, 1 W after radiotherapy): 0.60 ± 0.25 ml/20 min
salivary flow rate ([4]; low dose 20.25 mM in drinking water, 2 W after radiotherapy): 0.95 ± 0.01^a ml/20 min
salivary flow rate ([4]; low dose 20.25 mM in drinking water, 4 W after radiotherapy): 0.82 ± 0.21^a ml/20 min
salivary flow rate ([4]; low dose 20.25 mM in drinking water, 6 W after radiotherapy): 0.74 ± 0.12 ml/20 min
salivary flow rate ([4]; low dose 20.25 mM in drinking water, 8 W after radiotherapy): 0.76 ± 0.09 ml/20 min
salivary flow rate ([4]; low dose 20.25 mM in drinking water, first column 1 W (1 week before radiotherapy)): 1.34 ± 0.26 ml/20 min
nitrate content in saliva, course after administration [5]: relatively stable
vacuole area in submandibular gland acinar cells as compared with IR group [6]: significantly decreased
Nitrate content in the blood ([7]; 0 h): 41.8 µmol/L
Nitrate content in the blood ([7]; 2 h): 1052.8 µmol/L
Nitrate content in the blood ([7]; 4 h): 572.4 µmol/L
Nitrate content in the blood ([7]; 6 h): 297.4 µmol/L
Nitrate content in the blood ([7]; 12 h): 45.3 µmol/L
Nitrate content in the blood ([7]; 24 h): 32.7 µmol/L
expression level of AQP5 versus IR group ([8]; high dose 40.5 mM): significantly different
expression level of AQP5 versus IR group ([8]; low dose 20.25 mM): significantly different
effect on the organs in the body of the rats ([9]; continuous administration of 40.5 mM for 9 weeks): no significant effect
abnormality in the major organs, HE stained sections ([9]; high dose 40.5 mM, 8 weeks after radiotherapy, FIG. 12): no abnormality

O=C1O[C@H]([C@@H](O)CO)C(O)=C1O [Vc, vitamin C]
effect on proliferation of submandibular gland epithelial cells after single irradiation [2]: promote the proliferation

— patent US20250228785A1, “MICROCAPSULE, PREPARATION METHOD THEREFOR, AND USE THEREOF IN PREVENTING AND/OR TREATING DAMAGE TO SALIVARY GLANDS CAUSED BY RADIATION THERAPY” (CAPITAL MEDICAL UNIVERSITY, priority 2021, published 2025)
